Reference: patent US20120082658A1, “Methods for the Treatment of Allergic Diseases” (VentiRx Pharmaceuticals, Inc., priority 2010, published 2012)

Legend:
Assay type in all cases: cell-based
TLR9 = target: T1, TLR9 (Homo sapiens, UniProt Q9NR96); assay: HEK293 cells transfected with human TLR9, NF-κB driven reporter; conditions: concentration up to 25 uM
T1 construct: expressed in transfected cells; host or cells: HEK293
T1 sequence (Q9NR96 26-1032): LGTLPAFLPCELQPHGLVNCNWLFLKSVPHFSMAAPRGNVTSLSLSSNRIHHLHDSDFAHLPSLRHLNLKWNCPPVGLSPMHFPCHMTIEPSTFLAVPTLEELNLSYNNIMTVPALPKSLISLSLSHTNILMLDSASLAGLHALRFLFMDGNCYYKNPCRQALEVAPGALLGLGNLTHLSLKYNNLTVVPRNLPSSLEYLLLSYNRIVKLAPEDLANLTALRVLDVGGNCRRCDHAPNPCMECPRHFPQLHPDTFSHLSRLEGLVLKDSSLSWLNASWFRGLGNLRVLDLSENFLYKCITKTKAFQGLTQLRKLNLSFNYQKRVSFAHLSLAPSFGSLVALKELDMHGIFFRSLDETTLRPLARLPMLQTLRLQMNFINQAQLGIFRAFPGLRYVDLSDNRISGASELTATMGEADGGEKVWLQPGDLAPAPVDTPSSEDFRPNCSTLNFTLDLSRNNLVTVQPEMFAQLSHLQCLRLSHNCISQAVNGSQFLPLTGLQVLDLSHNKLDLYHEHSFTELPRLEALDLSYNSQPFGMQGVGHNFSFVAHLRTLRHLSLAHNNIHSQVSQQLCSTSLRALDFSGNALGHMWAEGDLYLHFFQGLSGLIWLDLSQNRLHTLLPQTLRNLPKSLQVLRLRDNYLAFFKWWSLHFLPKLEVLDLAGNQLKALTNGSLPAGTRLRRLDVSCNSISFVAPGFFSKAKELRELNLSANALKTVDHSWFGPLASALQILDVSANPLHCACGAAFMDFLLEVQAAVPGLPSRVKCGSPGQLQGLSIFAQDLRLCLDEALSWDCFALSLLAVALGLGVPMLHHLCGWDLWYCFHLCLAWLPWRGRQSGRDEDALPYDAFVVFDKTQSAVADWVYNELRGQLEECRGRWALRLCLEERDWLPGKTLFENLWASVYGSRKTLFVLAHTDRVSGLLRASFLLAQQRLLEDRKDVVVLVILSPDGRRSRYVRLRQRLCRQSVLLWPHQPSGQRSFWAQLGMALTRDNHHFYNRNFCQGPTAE
Description: (§1) FIG. 8 is two graphs depicting the potency and selectivity of VTX-378 for TLR8. The half-maximal effective concentration (EC50) for VTX-378 activation of TLR8 and TLR7 was assessed in peripheral blood mononuclear cells (PBMCs) by the amount of secreted TNFα (A) and by the activity of NF-κB (B) from 15 healthy donors and also in HEK293 cells transfected with various human TLRs.
(§2) Preclinical studies were performed with VTX-378, the active pharmaceutical ingredient in VTX-1463. The specificity of VTX-378 for human TLR8 relative to other TLRs was assessed in transfected Human Embryonic Kidney 293 (HEK293) cells engineered to express individual TLRs (2-9) via transfection, and assessed using an NF-κB driven reporter system. […] The pharmacologic effects of VTX-378 were characterized in vitro using isolated human peripheral blood mononuclear cells (PBMCs).

human whole blood = assay: Co-culture of human whole blood, IL-12 and IL-10 production
From the text: FIG. 9 is two graphs depicting that VTX-378 stimulates production of IL-12 and IL-10.

TLR4 = target: T2, TLR4 (Homo sapiens, UniProt O00206+Q9Y6Y9); assay: HEK293 cells transfected with human TLR4, NF-κB driven reporter
T2 construct: expressed in transfected cells; host or cells: HEK293
Description: as §1, §2

human TLR8 = target: T3, human TLR8 (Homo sapiens, UniProt Q9NR97); assay: HEK293 cells transfected with human TLR8, NF-κB driven reporter; conditions: read-out: half maximal effective concentration (EC50), activation of TLR8
T3 construct: expressed in transfected cells; host or cells: HEK293
T3 sequence (Q9NR97 27-1041): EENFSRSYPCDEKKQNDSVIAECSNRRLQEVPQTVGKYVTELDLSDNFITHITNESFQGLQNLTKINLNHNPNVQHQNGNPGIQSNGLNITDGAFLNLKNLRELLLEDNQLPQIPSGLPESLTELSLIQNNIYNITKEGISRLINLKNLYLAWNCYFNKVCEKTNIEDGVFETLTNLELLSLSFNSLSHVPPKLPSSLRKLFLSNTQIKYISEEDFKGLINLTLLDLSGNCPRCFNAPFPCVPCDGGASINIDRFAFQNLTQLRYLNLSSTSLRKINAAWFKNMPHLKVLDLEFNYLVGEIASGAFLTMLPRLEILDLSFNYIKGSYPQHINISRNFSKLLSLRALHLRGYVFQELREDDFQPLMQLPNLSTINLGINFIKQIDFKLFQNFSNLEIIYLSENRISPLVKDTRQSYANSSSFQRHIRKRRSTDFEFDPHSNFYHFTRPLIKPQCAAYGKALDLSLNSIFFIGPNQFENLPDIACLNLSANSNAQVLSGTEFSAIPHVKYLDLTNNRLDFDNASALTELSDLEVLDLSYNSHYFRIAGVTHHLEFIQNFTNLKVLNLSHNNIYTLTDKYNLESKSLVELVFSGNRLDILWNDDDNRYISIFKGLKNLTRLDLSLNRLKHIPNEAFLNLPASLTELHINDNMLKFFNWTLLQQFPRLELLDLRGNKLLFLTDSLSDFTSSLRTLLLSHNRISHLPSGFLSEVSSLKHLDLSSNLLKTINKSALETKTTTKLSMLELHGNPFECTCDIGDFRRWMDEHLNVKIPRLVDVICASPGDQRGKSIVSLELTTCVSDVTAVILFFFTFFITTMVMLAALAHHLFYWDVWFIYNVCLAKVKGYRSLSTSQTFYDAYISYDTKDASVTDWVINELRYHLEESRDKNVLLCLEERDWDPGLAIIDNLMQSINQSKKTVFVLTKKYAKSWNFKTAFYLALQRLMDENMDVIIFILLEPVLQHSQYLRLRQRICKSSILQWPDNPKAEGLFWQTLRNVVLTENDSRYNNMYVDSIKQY
Description: as §1, §2

T2 sequence (O00206 24-839): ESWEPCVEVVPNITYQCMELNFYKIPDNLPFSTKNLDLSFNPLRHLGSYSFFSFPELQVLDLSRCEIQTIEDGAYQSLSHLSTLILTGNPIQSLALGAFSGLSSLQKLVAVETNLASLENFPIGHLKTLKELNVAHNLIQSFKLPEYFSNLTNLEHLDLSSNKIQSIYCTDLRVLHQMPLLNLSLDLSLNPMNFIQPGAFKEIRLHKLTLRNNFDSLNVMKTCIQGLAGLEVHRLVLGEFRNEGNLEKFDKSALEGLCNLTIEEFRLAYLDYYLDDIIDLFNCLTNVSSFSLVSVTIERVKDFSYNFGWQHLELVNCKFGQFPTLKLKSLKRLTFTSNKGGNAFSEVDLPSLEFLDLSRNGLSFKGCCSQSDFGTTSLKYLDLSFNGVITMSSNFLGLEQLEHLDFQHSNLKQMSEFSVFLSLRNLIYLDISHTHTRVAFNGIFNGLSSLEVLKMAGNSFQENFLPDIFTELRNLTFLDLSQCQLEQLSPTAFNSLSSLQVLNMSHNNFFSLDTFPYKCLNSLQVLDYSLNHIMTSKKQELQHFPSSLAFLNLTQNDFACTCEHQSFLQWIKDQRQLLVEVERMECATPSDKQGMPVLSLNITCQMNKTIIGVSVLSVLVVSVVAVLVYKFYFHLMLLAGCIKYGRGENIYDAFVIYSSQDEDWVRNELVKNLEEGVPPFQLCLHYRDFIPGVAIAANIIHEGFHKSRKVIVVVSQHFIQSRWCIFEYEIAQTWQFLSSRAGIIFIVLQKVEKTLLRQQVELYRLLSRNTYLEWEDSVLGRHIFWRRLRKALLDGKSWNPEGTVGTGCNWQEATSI
T2 sequence (Q9Y6Y9 17-160 limits assumed): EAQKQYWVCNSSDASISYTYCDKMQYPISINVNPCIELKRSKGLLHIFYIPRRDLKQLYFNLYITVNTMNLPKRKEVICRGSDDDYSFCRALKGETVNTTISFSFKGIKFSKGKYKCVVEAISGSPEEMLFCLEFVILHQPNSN

activity on TLR9 (TLR9): no detectable activity
activity on TLR4 (TLR4): minimal to no activity
EC50 (human TLR8): ~100 nM
SMILES: CCCN(CCC)C(=O)C1=Cc2ccc(-c3ccc(C(=O)N4CCCC4)cc3)cc2N=C(N)C1 [VTX-378]
production of IL-10 (human whole blood): dose dependent increase
production of IL-12 (human whole blood): dose dependent increase
